According to EPA's CvTdb concentration-time database:

Key:
Rat [1] = assay: concentration in plasma after dosing; conditions: dosed: Wyeth-14643, 5.0 mg/kg, oral, Male, Sprague-Dawley
Rat [2] = assay: concentration in plasma after dosing; conditions: 6 h; dosed: Bis 2-Chloroethoxy Methane; 20 mg/kg; iv; Female; F344
Rat [3] = assay: concentration in thymus after dosing; conditions: 3 h; dosed: Bis 2-Chloroethoxy Methane; 20 mg/kg; iv; Female; F344
Rat [4] = assay: concentration in thymus after dosing; conditions: 7 h; dosed: Bis 2-Chloroethoxy Methane; 20 mg/kg; iv; Male; F344
Rat [5] = assay: concentration in plasma after dosing; conditions: dosed: Bis 2-Chloroethoxy Methane, 40 mg/kg, iv, Male, Harlan Sprague Dawley
Rat [6] = assay: concentration in thymus after dosing; conditions: 2 h; dosed: Bis 2-Chloroethoxy Methane; 20 mg/kg; iv; Female; F344
Rat [7] = assay: concentration in liver after dosing; conditions: 20 min; dosed: Bis 2-Chloroethoxy Methane; 20 mg/kg; iv; Female; F344
Rat [8] = assay: concentration in plasma after dosing; conditions: 3 h; dosed: Bis 2-Chloroethoxy Methane; 40 mg/kg; iv; Male; Harlan Sprague Dawley
Rat [9] = assay: concentration in plasma after dosing; conditions: 20 min; dosed: Bis 2-Chloroethoxy Methane; 20 mg/kg; iv; Female; F344
Rat [10] = assay: concentration in liver after dosing; conditions: 0.5 h; dosed: Fluorotelomer alcohol 8+2; 80 mg/kg; oral; Female; Harlan Sprague Dawley
Rat [11] = assay: concentration in plasma after dosing; conditions: dosed: Fluorotelomer alcohol 8+2, 12 mg/kg, oral, Male, Harlan Sprague Dawley
Rat [12] = assay: concentration in kidney after dosing; conditions: 6 h; dosed: Fluorotelomer alcohol 8+2; 24 mg/kg; oral; Male; Harlan Sprague Dawley
Rat [13] = assay: concentration in plasma after dosing; conditions: 0.5 h; dosed: Di-n-butyl phthalate; 100 mg/kg; oral; Male; Sprague-Dawley
Rat [14] = assay: concentration in plasma after dosing; conditions: 0.5 h; dosed: Di-n-butyl phthalate; 100 mg/kg; oral; Male; Sprague-Dawley; remark: listed apart in the source
Rat [15] = assay: concentration in plasma after dosing; conditions: 3 h; dosed: Di-n-butyl phthalate; 50 mg/kg; oral; Male; Sprague-Dawley
Rat [16] = assay: concentration in brain after dosing; conditions: 864 h; dosed: Perfluorodecanoic acid; 10 mg/kg; oral; Female; Harlan Sprague Dawley
Rat [17] = assay: concentration in liver after dosing; conditions: 864 h; dosed: Perfluorodecanoic acid; 10 mg/kg; oral; Male; Harlan Sprague Dawley
Rat [18] = assay: concentration in plasma after dosing; conditions: 22 h; dosed: Primidone; 130 mg/kg; oral; Male; F344
Rat [19] = assay: concentration in plasma after dosing; conditions: 22 h; dosed: Primidone; 30 mg/kg; oral; Female; F344
Rat [20] = assay: concentration in liver after dosing; conditions: 2 h; dosed: Thiodiglycolic Acid; 20 mg/kg; iv; Male; Harlan Sprague Dawley
Rat [21] = assay: concentration in liver after dosing; conditions: 4 h; dosed: Thiodiglycolic Acid; 20 mg/kg; iv; Female; Harlan Sprague Dawley
Rat [22] = assay: concentration in liver after dosing; conditions: 20 min; dosed: Thiodiglycolic Acid; 20 mg/kg; iv; Female; F344
Rat [23] = assay: concentration in plasma after dosing; conditions: 2 h; dosed: dichloroacetic acid; 60 mg/kg; iv; Female; Harlan Sprague-Dawley
Rat [24] = assay: concentration in plasma after dosing; conditions: 40 min; dosed: dichloroacetic acid; 40 mg/kg; oral; Female; Harlan Sprague Dawley
Rat [25] = assay: concentration in plasma after dosing; conditions: dosed: dichloroacetic acid, 100 mg/kg, oral, Male, F344

**Q.** Which concentration in plasma (Rat [1]; 0.5 h) does the source give for `Cc1cccc(Nc2cc(Cl)nc(SCC(=O)O)n2)c1C` here?
**A.** 1970 ng/mL

**Q.** And the concentration in plasma (Rat [1]; 10 h)?
**A.** 150 ng/mL

**Q.** Which concentration in plasma (Rat [2]) does the source give for `ClCCOCOCCCl` [Bis 2-Chloroethoxy Methane] here?
**A.** 17.6 ng/mL

**Q.** And the concentration in thymus (Rat [3])?
**A.** 174 ng/g

**Q.** And the concentration in thymus (Rat [4])?
**A.** 15.2 ng/g

**Q.** What about the concentration in plasma (Rat [5]; 10 min) of the same molecule?
**A.** 22300 ng/mL

**Q.** What about the concentration in plasma (Rat [5]; 5.333 h) of the same molecule?
**A.** 72.8 ng/mL

**Q.** What about the concentration in thymus (Rat [6]) of the same molecule?
**A.** 376 ng/g

**Q.** And the concentration in liver (Rat [7])?
**A.** 1330 ng/g

**Q.** What about the concentration in plasma (Rat [8]) of the same molecule?
**A.** 287 ng/mL

**Q.** What about the concentration in plasma (Rat [9]) of the same molecule?
**A.** 3810 ng/mL

**Q.** With `OCCC(F)(F)C(F)(F)C(F)(F)C(F)(F)C(F)(F)C(F)(F)C(F)(F)C(F)(F)F` [Fluorotelomer alcohol 8+2] as the molecule, how does the concentration in liver (Rat [10]) read?
**A.** 4040 ng/g

**Q.** And the concentration in plasma (Rat [11]; 5 min)?
**A.** 396 ng/mL

**Q.** What about the concentration in plasma (Rat [11]; 3 h) of the same molecule?
**A.** 196 ng/mL

**Q.** And the concentration in kidney (Rat [12])?
**A.** 366 ng/g

**Q.** Which concentration in plasma (Rat [13]) does the source give for `CCCCOC(=O)c1ccccc1C(=O)O` [Mono-n-butyl phthalate] here?
**A.** 55900 ng/mL

**Q.** What about the concentration in plasma (Rat [14]) of the same molecule?
**A.** 29700 ng/mL

**Q.** What about the concentration in plasma (Rat [15]) of the same molecule?
**A.** 1180 ng/mL

**Q.** What does the source list for `O=C(O)C(F)(F)C(F)(F)C(F)(F)C(F)(F)C(F)(F)C(F)(F)C(F)(F)C(F)(F)C(F)(F)F` [Perfluorodecanoic acid]?
**A.** concentration in brain (Rat [16]): 1220 ng/g; concentration in liver (Rat [17]): 54300 ng/g

**Q.** For `CCC1(c2ccccc2)C(=O)NC(=O)NC1=O` [Phenobarbital], which concentration in plasma (Rat [18]) is on record?
**A.** 4990 ng/mL

**Q.** And the concentration in plasma (Rat [19])?
**A.** 720 ng/mL

**Q.** What does the source list for `O=C(O)CSCC(=O)O` [Thiodiglycolic Acid]?
**A.** concentration in liver (Rat [20]): 112000 ng/g; concentration in liver (Rat [21]): 7460 ng/g; concentration in liver (Rat [22]): 162000 ng/g

**Q.** `O=C(O)C(Cl)Cl` [dichloroacetic acid] was tested. Which concentration in plasma (Rat [23]) did it give?
**A.** 1170 ng/mL

**Q.** What about the concentration in plasma (Rat [24]) of the same molecule?
**A.** 10600 ng/mL

**Q.** And the concentration in plasma (Rat [25]; 20 min)?
**A.** 20400 ng/mL

**Q.** And the concentration in plasma (Rat [25]; 8 h)?
**A.** 29200 ng/mL
